Measurements reported in PubChem BioAssay (NCI).
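Briefly, cells in 96-well plates were exposed to five compound concentrations for 48 h, and endpoints were estimated by linear interpolation. TGI: total growth inhibition.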

Tests used:
Assay in all cases: NCI tumour cell line growth inhibition, 48 h
IGROV1 ovarian = system: IGROV1 ovarian
SW-620 colon = system: SW-620 colon
A498 renal = system: A498 renal
HS 578T breast = system: HS 578T breast
COLO 205 colon = system: COLO 205 colon
HL-60(TB) leukemia = system: HL-60(TB) leukemia
OVCAR-4 ovarian = system: OVCAR-4 ovarian
U251 CNS = system: U251 CNS
BT-549 breast = system: BT-549 breast
SF-295 CNS = system: SF-295 CNS
K-562 leukemia = system: K-562 leukemia
MDA-MB-231 breast = system: MDA-MB-231 breast
OVCAR-3 ovarian = system: OVCAR-3 ovarian
MALME-3M melanoma = system: MALME-3M melanoma
SF-268 CNS = system: SF-268 CNS
HOP-92 NSCLC = system: HOP-92 NSCLC
PC-3 prostate = system: PC-3 prostate
NCI-H226 lung = system: NCI-H226 lung
MOLT-4 leukemia = system: MOLT-4 leukemia
786-0 renal = system: 786-0 renal
ACHN renal = system: ACHN renal
T-47D breast = system: T-47D breast
SK-MEL-28 melanoma = system: SK-MEL-28 melanoma
OVCAR-5 ovarian = system: OVCAR-5 ovarian
HCT-116 colon = system: HCT-116 colon
SR leukemia = system: SR leukemia
SN12C renal = system: SN12C renal
M14 melanoma = system: M14 melanoma
A549 NSCLC = system: A549 NSCLC
SNB-75 CNS = system: SNB-75 CNS
SNB-19 CNS = system: SNB-19 CNS
MCF7 breast = system: MCF7 breast
NCI-H522 lung = system: NCI-H522 lung
RXF 393 renal = system: RXF 393 renal
DU-145 prostate = system: DU-145 prostate
EKVX NSCLC = system: EKVX NSCLC
SK-OV-3 ovarian = system: SK-OV-3 ovarian
SK-MEL-5 melanoma = system: SK-MEL-5 melanoma
SF-539 CNS = system: SF-539 CNS
RPMI-8226 leukemia = system: RPMI-8226 leukemia
CAKI-1 renal = system: CAKI-1 renal
MDA-MB-435 = system: MDA-MB-435
UACC-257 melanoma = system: UACC-257 melanoma
OVCAR-8 ovarian = system: OVCAR-8 ovarian
LOX IMVI melanoma = system: LOX IMVI melanoma
HCT-15 colon = system: HCT-15 colon
UO-31 renal = system: UO-31 renal
NCI-H460 lung = system: NCI-H460 lung
HOP-62 NSCLC = system: HOP-62 NSCLC
HCC-2998 colon = system: HCC-2998 colon
HT29 colon = system: HT29 colon
NCI-H23 lung = system: NCI-H23 lung
MDA-N = system: MDA-N
NCI/ADR-RES ovarian = system: NCI/ADR-RES ovarian
TK-10 renal = system: TK-10 renal
SK-MEL-2 melanoma = system: SK-MEL-2 melanoma
KM12 colon = system: KM12 colon
UACC-62 melanoma = system: UACC-62 melanoma

Measured: TGI

N#CCCN(CCC#N)CCN(CCN(CCC#N)CCC#N)CCN(CCC#N)CCC#N
not listed: KM12 colon | UACC-62 melanoma
> 100 µM: all other assays above

O=C(O)C1[C@@H](C(=O)O)C1(Br)CBr (some centres undefined)
not listed: MALME-3M melanoma
> 100 µM: all other assays above

COC(=O)/C(C#N)=C(\Nc1ccccc1)N1CCCC1
not listed: KM12 colon | UACC-62 melanoma
> 100 µM: all other assays above
